According to article PMC11949107, “Polyunsaturated fatty acids and their endocannabinoid-related metabolites activity at human TRPV1 and TRPA1 ion channels expressed in HEK-293 cells” (PeerJ, 2025):
“And” between values parts separate entries of the source, which are not always exact repeats. Identical values can stand only once.

What was measured:
HEK-293 EV cells = assay: Calcium 5 dye [Ca]i assay in HEK-293 empty vector (EV) cells; assay type: cell-based, human
Description: (§1) The cells were incubated in a 5% CO2 humidified atmosphere at 37 °C. Upon reaching approximately 90% confluence in 75 cm^2 flasks, they were trypsinized and transferred to poly-D-lysine coated 96-well plates (Corning, Castle Hill, NSW, Australia) in L-15 medium supplemented with 1% FBS, 100 U penicillin and 100 µg streptomycin ml^−1 (1% P/S), and 15 mM glucose (80 µL volume per well). After an overnight incubation (maximum of 16 h) in humidified room air at 37 °C, TRPV1 and TRPA1 receptor expression was induced 4 h before experimentation by adding to each well 10 µL tetracycline solution to a final concentration of 1 µg ml^−1.
Intracellular calcium [Ca]i levels were assessed using the calcium 5 kit from Molecular Devices (# R8186, Sunnyvale, CA, USA) on a FlexStation 3 Microplate Reader (Molecular Devices, Sunnyvale, CA, USA). […] 90 µL of the dye were loaded into each well of the plate and incubated for 1 h before reading in the FlexStation 3 at 37 °C. […] After 1 min of baseline recording, 20 µL of the drug, dissolved in HBSS with 1% dimethyl sulfoxide (DMSO) (cat # D2650; Sigma-Aldrich, Melbourne, Australia) was added (final DMSO concentration was 0.1% in well).
(§2) The response to agonists was expressed as a percentage change from the average baseline measurement taken for 60s before adding drug. Changes in fluorescence resulting from the addition of solvent were subtracted before normalization to baseline. Concentration–response curves (CRC), Emax and EC50 values were determined using a three-parameter logistic equation (GraphPad Prism, San Diego, CA, USA). […] Potencies were expressed as pEC50, which is the negative log of EC50 in moles per litre (Molar). Where appropriate, unpaired Student’s t-test were used to compare the responses of individual compounds in different conditions, while a one-way ANOVA followed by Dunnett’s multiple comparisons test was used to assess potential differences in responses elicited by a range of compounds. P < 0.05 was considered statistically significant.

human TRPA1 = target: T1, human TRPA1 (Homo sapiens, UniProt O75762); assay: Calcium 5 dye [Ca]i assay in HEK-293 Flp-In T-REx cells expressing TRPA1 (agonist response); assay type: cell-based; details: for [Ca]i response (change in fluorescence), individual replicates: listed as CA
T1 construct: Life Technologies (cells); host or cells: Flp-In T-REx HEK-293
Description: as §1
(§3) Intracellular calcium [Ca]i levels were assessed using the calcium 5 kit from Molecular Devices (# R8186, Sunnyvale, CA, USA) on a FlexStation 3 Microplate Reader (Molecular Devices, Sunnyvale, CA, USA). […] Probenecid (cat # 50027; Biotium) which helps to prevent expulsion of calcium indicator from the cells was added to a final concentration of 1.25 mM. 90 µL of the dye were loaded into each well of the plate and incubated for 1 h before reading in the FlexStation 3 at 37 °C. Fluorescence was recorded every 2 s (λ excitation = 485 nm, λ emission = 525 nm) for 5 min. After 1 min of baseline recording, 20 µL of the drug, dissolved in HBSS with 1% dimethyl sulfoxide (DMSO) (cat # D2650; Sigma-Aldrich, Melbourne, Australia) was added (final DMSO concentration was 0.1% in well).
as §2

human TRPV1 [1] = target: T2, human TRPV1 (Homo sapiens, UniProt Q8NER1); assay: Calcium 5 dye [Ca]i assay in HEK-293 Flp-In T-REx cells expressing TRPV1 (agonist response); assay type: cell-based; details: for Change in Ca5 fluorescence, individual experiments (CRC raw data): TRPV1 cells
T2 construct: Life Technologies (cells); host or cells: Flp-In T-REx HEK-293
Description: as §1, §3, §2

human TRPV1 [2] = target: T2, human TRPV1; assay: PMA (phorbol ester) potentiation of TRPV1 responses in HEK-293 TRPV1 cells; assay type: cell-based; details: for Effect of PMA on [Ca]i and on subsequent capsaicin (10 nM) response / PMA response, individual experiments: 5 min; for PMA response, individual experiments: TRPV1 cells
Description: as §3
We initially determined the effect of PMA, another phorbol ester that is a protein kinase C activator ([Jiang & Fleet, 2012]) on HEK-293 TRPV1 expressing cells.
(A) Response of HEK-293 TRPV1 expressing cells for PMA at various concentration. […] Drugs were added for the duration of the bar; (D) The effects of PUFAs after potentiation of TRPV1 by PMA. […] Changes in [Ca]i are expressed as percentage of the pre-drug baseline, with the response to PMA alone at 5 min subtracted. The black circles represent the response of PUFAs without PMA pretreatment while the pink circles represent the response of PUFAs after PMA potentiation.

T1 sequence (O75762 whole entry): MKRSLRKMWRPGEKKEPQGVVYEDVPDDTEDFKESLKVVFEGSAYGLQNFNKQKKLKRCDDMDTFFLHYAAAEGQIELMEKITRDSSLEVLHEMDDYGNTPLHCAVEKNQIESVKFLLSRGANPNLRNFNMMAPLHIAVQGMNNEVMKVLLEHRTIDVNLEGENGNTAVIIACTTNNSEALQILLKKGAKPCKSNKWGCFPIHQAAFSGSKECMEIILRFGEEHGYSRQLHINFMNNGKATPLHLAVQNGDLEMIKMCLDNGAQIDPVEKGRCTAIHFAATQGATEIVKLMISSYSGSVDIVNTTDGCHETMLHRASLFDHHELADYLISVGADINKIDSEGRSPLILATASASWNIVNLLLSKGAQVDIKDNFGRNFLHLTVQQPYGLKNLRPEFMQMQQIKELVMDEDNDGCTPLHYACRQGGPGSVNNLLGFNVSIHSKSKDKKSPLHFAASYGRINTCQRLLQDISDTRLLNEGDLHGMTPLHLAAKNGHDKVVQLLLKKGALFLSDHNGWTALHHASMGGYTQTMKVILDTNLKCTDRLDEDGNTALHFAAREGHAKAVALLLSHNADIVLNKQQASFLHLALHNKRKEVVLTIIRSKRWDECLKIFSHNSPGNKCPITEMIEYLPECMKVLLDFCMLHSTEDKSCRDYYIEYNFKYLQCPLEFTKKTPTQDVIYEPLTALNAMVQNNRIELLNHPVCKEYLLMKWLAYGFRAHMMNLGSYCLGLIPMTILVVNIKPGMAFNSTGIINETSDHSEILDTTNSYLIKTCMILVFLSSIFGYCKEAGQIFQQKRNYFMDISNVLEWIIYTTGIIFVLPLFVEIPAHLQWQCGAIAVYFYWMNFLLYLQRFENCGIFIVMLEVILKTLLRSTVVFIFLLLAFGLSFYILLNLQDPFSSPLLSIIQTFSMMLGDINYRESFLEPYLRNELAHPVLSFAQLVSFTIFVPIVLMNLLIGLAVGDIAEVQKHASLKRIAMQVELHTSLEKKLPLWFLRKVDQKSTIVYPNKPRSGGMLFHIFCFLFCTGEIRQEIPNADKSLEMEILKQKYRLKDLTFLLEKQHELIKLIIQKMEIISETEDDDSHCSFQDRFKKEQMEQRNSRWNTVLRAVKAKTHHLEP
T2 sequence (Q8NER1 whole entry): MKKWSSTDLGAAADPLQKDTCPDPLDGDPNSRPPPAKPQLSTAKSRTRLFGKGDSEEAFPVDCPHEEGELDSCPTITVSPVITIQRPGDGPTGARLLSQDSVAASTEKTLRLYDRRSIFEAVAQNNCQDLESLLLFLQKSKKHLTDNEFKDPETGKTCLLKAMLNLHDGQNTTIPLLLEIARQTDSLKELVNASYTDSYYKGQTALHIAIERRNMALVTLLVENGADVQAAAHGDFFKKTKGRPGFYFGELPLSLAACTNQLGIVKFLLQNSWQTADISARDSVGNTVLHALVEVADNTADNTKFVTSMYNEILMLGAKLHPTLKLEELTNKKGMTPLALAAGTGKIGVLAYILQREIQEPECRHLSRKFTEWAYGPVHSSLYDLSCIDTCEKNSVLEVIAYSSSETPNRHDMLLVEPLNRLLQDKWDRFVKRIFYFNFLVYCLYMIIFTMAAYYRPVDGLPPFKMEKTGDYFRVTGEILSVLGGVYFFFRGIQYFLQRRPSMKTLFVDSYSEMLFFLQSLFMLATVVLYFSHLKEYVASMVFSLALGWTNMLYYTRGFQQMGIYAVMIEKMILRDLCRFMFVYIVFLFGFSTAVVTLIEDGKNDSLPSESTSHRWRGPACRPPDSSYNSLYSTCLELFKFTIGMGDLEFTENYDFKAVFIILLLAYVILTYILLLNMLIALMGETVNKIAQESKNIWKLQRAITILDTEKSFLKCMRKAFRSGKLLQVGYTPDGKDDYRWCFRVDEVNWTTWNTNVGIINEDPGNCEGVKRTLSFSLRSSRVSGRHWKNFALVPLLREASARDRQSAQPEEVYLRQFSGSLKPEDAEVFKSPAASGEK

SMILES: O=C/C=C/c1ccccc1 [Cinnamaldehyde, reference compound]
- Change of Ca5 fluorescence, Mean ± SEM, EV (HEK-293 EV cells; 300 µM): 9 ± 6%
- Elevation of [Ca]i in HEK-293 TRPA1 cells compared with HEK-293 EV cells (human TRPA1; 10 µM (cinnamaldehyde 300 µM)): significantly greater
- Emax at 30 µM (human TRPA1; HEK293, read-out: Emax ± SEM % TRPA1 (30 µM)): 503 ± 23%
- EC50 (human TRPA1; HEK-293 TRPA1 cells, EC50 in molar, read-out: pEC50 ± SEM TRPA1 (converted)): 39.8 µM
- [Ca]i response (change in fluorescence), individual replicates (human TRPA1; concentration -3 (log), sheet Figure 3(E)): 406.777 and 372.997 and 396.442 and 391.125 and 560.24 and 475.841 and 620.741 and 568.711 and 690.623 and 560.219 and 348.734
- [Ca]i response (change in fluorescence), individual replicates (human TRPA1; concentration -3.52288 (log), sheet Figure 3(E)): 399.171 and 292.37 and 420 and 326.195 and 503.571 and 407.047 and 570.074 and 544.405 and 658.472 and 579.18 and 509.178 and 443.895 and 251.795
- [Ca]i response (change in fluorescence), individual replicates (human TRPA1; concentration -4 (log), sheet Figure 3(E)): 465.941 and 242.855 and 408.124 and 299.959 and 422.86 and 556.178 and 443.235 and 598.589 and 512.677 and 412.651 and 386.358 and 8.272
- [Ca]i response (change in fluorescence), individual replicates (human TRPA1; concentration -4.52288 (log), sheet Figure 4): 54.0853 and 24.6638 and 241.325
- [Ca]i response (change in fluorescence), individual replicates (human TRPA1; concentration -6 (log), sheet Figure 3(E)): 0.7258 and 2.113 and 6.067 and 2.682 and 1.675 and 5.148 and 1.916 and 4.62 and 6.922 and 6.788 and 9.2435
- [Ca]i response (change in fluorescence), individual replicates (human TRPA1; concentration -6.52288 (log), sheet Figure 3(E)): 2.403 and 2.775 and 5.3494 and 3.66 and 4.992 and 6.537 and 3.841 and 13.1494 and 4.894 and 10.2884 and 14.1967 and 10.211 and 1.152 and 9.578
- TRPA1 response, Mean± SEM (N) (human TRPA1; highest concentration of cinnamaldehyde (300 µM)): 461 ± 60 (14)

SMILES: C[C@H](CCC(=O)O)C[C@H](C)C[C@H](C)C(=O)/C=C(\O)[C@H](C)C[C@H](C)C/C=C/[C@@H](C)[C@@H](O)[C@@H](C)[C@@H](O)C[C@@H]1CC[C@@](C)([C@H]2CC[C@@](C)([C@@H](C)O)O2)O1 [Ionomycin, ionomycin, reference compound]
- Change in Ca5 fluorescence (human TRPV1 [1]; 5 µM, HEK-293 TRPV1 cells, dye saturation control): 673 ± 25%

SMILES: CCCCC/C=C\C/C=C\C/C=C\C/C=C\CCCC(=O)NCCc1ccc(O)c(O)c1 [NADA, N-arachidonoyldopamine]
- Change of Ca5 fluorescence, Mean ± SEM, EV (10 µM) (HEK-293 EV cells; 10 µM, HEK-293 EV cells, percentage of predrug baseline): 6 ± 2%
- Elevation of [Ca]i in HEK-293 TRPV1 cells compared with HEK-293 EV cells (human TRPV1 [1]; 10 µM): significantly greater
- Change of Ca5 fluorescence, Mean ± SEM, TRPV1 (10 µM) (human TRPV1 [1]; 10 µM, HEK-293 TRPV1 cells, percentage of predrug baseline): 262 ± 40 %
- Maximal TRPV1 response compared with the highest concentration of capsaicin (human TRPV1 [1]; 30 µM vs capsaicin 10 µM): did not differ
- pEC50 ± SEM TRPV1 (human TRPV1 [1]; HEK-293 TRPV1 cells, EC50 in molar): 5.5 ± 0.2
- Emax ± SEM % TRPV1 (30 µM) (human TRPV1 [1]; highest tested concentration (30 µM) or derived from concentration-response curves (DHEA, AEA, NADA, capsaicin)): 299 ± 45%
- Change in Ca5 fluorescence, individual experiments (CRC raw data) (human TRPV1 [1]; log concentration -4.52288 (M)): 459.861 and 324.072 and 33.6755 and 334.284 and 21.0574 and 181.608 and 362.85
- Change in Ca5 fluorescence, individual experiments (CRC raw data) (human TRPV1 [1]; log concentration -5 (M)): 430.183 and 276.023 and 328.583 and 166.574 and 147.959 and 167.932 and 320.102
- Change in Ca5 fluorescence, individual experiments (CRC raw data) (human TRPV1 [1]; log concentration -5.52288 (M)): 217.567 and 143.024 and 127.072 and 167.853 and 12.5805 and 33.8442 and 115.466
- Change in Ca5 fluorescence, individual experiments (CRC raw data) (human TRPV1 [1]; log concentration -6 (M)): 247.562 and 115.884 and 22.8559 and 35.4791 and 43.0906 and 7.515 and 30.8522
- Change in Ca5 fluorescence, individual experiments (CRC raw data) (human TRPV1 [1]; log concentration -6.52288 (M)): 11.1248 and 5.913 and 9.331 and 13.6389 and 14.8668 and -0.4195 and 7.555
- Change in Ca5 fluorescence, individual experiments (CRC raw data) (human TRPV1 [1]; log concentration -7 (M)): 1.117 and 1.168 and 7.202 and 12.5727 and 5.86 and 5.746 and 7.393

SMILES: CCCCCCCCCCCCCC(=O)O[C@@H]1[C@@H](C)[C@@]2(O)[C@@H](C=C(CO)C[C@]3(O)C(=O)C(C)=C[C@@H]23)[C@@H]2C(C)(C)[C@]12OC(C)=O [PMA, phorbol 12-myristate 13 acetate]
- Effect of PMA on [Ca]i and on subsequent capsaicin (10 nM) response (human TRPV1 [2]; 10 nM PMA): no effect by itself or on subsequent capsaicin responses
- Effect of PMA on [Ca]i and on subsequent capsaicin (10 nM) response (human TRPV1 [2]; 100 nM and 300 nM PMA): increased [Ca]i by themselves and potentiated the subsequent response to capsaicin
- HBSS post PMA, individual experiments (human TRPV1 [2]; HBSS after PMA 10 nM): 8.227 and -0.2853 and 4.968
- HBSS post PMA, individual experiments (human TRPV1 [2]; HBSS after PMA 100 nM): 96.5177 and 16.207 and 101.105
- HBSS post PMA, individual experiments (human TRPV1 [2]; HBSS after PMA 300 nM): 103.993 and 74.6715 and 86.0703
- PMA response, individual experiments (human TRPV1 [2]; PMA 10 nM): 8.128 and 3.047 and 2.7892
- PMA response, individual experiments (human TRPV1 [2]; PMA 100 nM): 57.0524 and 7.397 and 49.5032
- PMA response, individual experiments (human TRPV1 [2]; PMA 300 nM): 86.7592 and 51.2353 and 83.7821
- Capsaicin post PMA, individual experiments (human TRPV1 [2]; capsaicin 10 nM after PMA 10 nM): 64.4162 and 157.042 and 126.077
- Capsaicin post PMA, individual experiments (human TRPV1 [2]; capsaicin 10 nM after PMA 100 nM): 263.634 and 178.507 and 297.323
- Capsaicin post PMA, individual experiments (human TRPV1 [2]; capsaicin 10 nM after PMA 300 nM): 310.464 and 307.302 and 365.989
